Measurements taken from patent US8450313B2, “2,3-diaryl- or heteroaryl-substituted 1,1,1-trifluoro-2-hydroxypropyl compounds” (Hoffmann-La Roche Inc., priority 2009, dated 2013).

molecular target: T1, full length human recombinant glucocorticoid receptor (Homo sapiens, UniProt P04150); assay: Glucocorticoid Receptor Binding Assay (Glucocorticoid Receptor Competitor Assay far red kit, fluorescence polarization); conditions: competition with fluorescent GR ligand Fluormone GS Far Red, 3 hours at 22° C., pH 7.4; Ki calculated from IC50 by Cheng-Prusoff
T1 construct: It contains some partially purified full length human recombinant glucocorticoid receptor; purchased Panvera/Invitrogen PV4302
T1 sequence (P04150 1-777): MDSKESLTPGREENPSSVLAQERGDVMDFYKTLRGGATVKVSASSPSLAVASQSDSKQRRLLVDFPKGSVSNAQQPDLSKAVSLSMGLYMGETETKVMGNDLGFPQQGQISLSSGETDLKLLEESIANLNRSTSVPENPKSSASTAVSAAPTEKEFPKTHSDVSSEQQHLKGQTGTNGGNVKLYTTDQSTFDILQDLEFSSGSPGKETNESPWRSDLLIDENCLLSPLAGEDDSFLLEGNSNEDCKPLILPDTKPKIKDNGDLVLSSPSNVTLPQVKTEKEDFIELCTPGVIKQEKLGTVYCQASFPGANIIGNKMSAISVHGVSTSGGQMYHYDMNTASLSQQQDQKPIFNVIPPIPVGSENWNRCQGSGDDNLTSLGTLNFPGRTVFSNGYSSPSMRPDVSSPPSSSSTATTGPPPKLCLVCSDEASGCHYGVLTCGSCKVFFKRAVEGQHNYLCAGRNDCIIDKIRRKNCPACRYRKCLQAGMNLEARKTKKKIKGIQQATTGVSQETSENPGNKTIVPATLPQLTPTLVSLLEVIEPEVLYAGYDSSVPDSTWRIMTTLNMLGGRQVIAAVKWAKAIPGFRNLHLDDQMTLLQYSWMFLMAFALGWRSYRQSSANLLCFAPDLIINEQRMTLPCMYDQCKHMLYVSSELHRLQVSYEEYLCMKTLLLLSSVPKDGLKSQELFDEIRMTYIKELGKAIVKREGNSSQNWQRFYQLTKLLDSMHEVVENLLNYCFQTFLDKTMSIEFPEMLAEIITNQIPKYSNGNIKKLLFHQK
Description: Glucocorticoid Receptor Binding Assay
The ability of the substances to bind to the glucocorticoid receptor was determined with the help of a commercial Glucocorticoid Receptor Competitor Assay far red kit provided by Panvera/Invitrogen (PV4302). This kit is used as provided by the supplier. It contains some partially purified full length human recombinant glucocorticoid receptor, a coactivator related GR stabilizing peptide, a tight-binding fluorescent GR ligand Fluormone™ GS Far Red as labeled tracer and a screening buffer. All reagents are prepared and the assay is run according to the recommendations of the kit manufacturer.
Briefly, the GR stabilizing peptide and the human recombinant glucocorticoid receptor are both diluted with the screening buffer (pH 7.4) and are gently mixed (no vortexing) just before the assay and kept on ice until use. The fluorescent-labeled ligand is also diluted with the screening buffer just before the assay and kept on ice until use. The substances to test are pre-diluted in pure DMSO then some water is added to get an intermediate 4.2% DMSO stock solution. Ten microliter of the intermediate stock solution is gently mixed with 5 μA of diluted fluorescent-labeled ligand and 5 μl of diluted human recombinant glucocorticoid receptor in a 384-well plate (low volume, ultraclear, glass plate from Greiner ref 788896). The plate is centrifuged, sealed and incubated for 3 hours at 22° C. in the dark. The polarized fluorescence is measured with a Zeiss-HTS reader or any equivalent equipment (610-660 nm).
All compounds were tested to determine IC50 in a serial dilution experiment. The concentration at which 50% inhibition of the fluorescent GR ligand Fluormone™ GS Far Red is obtained (the IC50) is determined after fitting with a sigmoidal dose-response model of a plot of the logarithm of the concentration versus percent inhibition measured for the different concentrations. Ki's were calculated from IC50 based on Cheng-Prusoff equation (Cheng, Y, Prusoff, W H (1973) Biochem Pharmacol 22, 3099-3108): Ki=IC50/[1+D/Kd] wherein D is the concentration of the fluorescent ligand and Kd is the binding constant for the fluorescent ligand binding to the receptor under the conditions used in the competition experiment.

For `C[C@H](c1ccc(Oc2cnc(C(=O)O)cn2)cc1Cl)[C@@](O)(c1ccc2c(c1)N(C)C(=O)CO2)C(F)(F)F` (racemic) [Example 228, 5-{3-Chloro-4-[3,3,3-trifluoro-2-hydroxy-1-methyl-2-(4-methyl-3-oxo-3,4-dihydro-2H-benzo[1,4]oxazin-6-yl)-propyl]-phenoxy}-pyrazine-2-carboxylic acid], which Ki is on record?
Its Ki is 10.6 nM.

`C[C@@H](c1cc(OCc2ccc(C(=O)O)cc2)ccc1Cl)[C@](O)(c1ccc2c(c1)N(C)C(=O)CO2)C(F)(F)F` (relative stereo) [Example 2, 4-{4-Chloro-3-[3,3,3-trifluoro-2-hydroxy-1-methyl-2-(4-methyl-3-oxo-3,4-dihydro-2H-benzo[1,4]oxazin-6-yl)-propyl]-phenoxymethyl}-benzoic acid] was tested. Which Ki did it give?
The Ki was 2 nM.

Which Ki does the source give for `C[C@@H](c1cc(OCC(=O)O)ccc1Cl)[C@](O)(c1ccc2c(c1)N(C)C(=O)CO2)C(F)(F)F` (relative stereo) [Example 4, {4-Chloro-3-[3,3,3-trifluoro-2-hydroxy-1-methyl-2-(4-methyl-3-oxo-3,4-dihydro-2H-benzo[1,4]oxazin-6-yl)-propyl]-phenoxy}-acetic acid] here?
The Ki was 426 nM.

For `CCOC(=O)c1cccc(Oc2ccc(Cl)c([C@H](C)[C@](O)(c3ccc4c(c3)N(C)C(=O)CO4)C(F)(F)F)c2)c1` (relative stereo) [Example 5, 3-{4-Chloro-3-[3,3,3-trifluoro-2-hydroxy-1-methyl-2-(4-methyl-3-oxo-3,4-dihydro-2H-benzo[1,4]oxazin-6-yl)-propyl]-phenoxy}-benzoic acid ethyl ester], which Ki is on record?
The Ki was 7.5 nM.

Which Ki does the source give for `COC(=O)c1ccc(Oc2ccc(Cl)c([C@H](C)[C@](O)(c3ccc4c(c3)N(C)C(=O)CO4)C(F)(F)F)c2)cc1` (relative stereo) [Example 7, 4-{4-Chloro-3-[3,3,3-trifluoro-2-hydroxy-1-methyl-2-(4-methyl-3-oxo-3,4-dihydro-2H-benzo[1,4]oxazin-6-yl)-propyl]-phenoxy}-benzoic acid methyl ester] here?
Its Ki is 11.1 nM.

For `C[C@@H](c1cc(Oc2ccc(C(=O)O)cc2)ccc1Cl)[C@](O)(c1ccc2c(c1)N(C)C(=O)CO2)C(F)(F)F` (relative stereo) [Example 8, 4-{4-Chloro-3-[3,3,3-trifluoro-2-hydroxy-1-methyl-2-(4-methyl-3-oxo-3,4-dihydro-2H-benzo[1,4]oxazin-6-yl)-propyl]-phenoxy}-benzoic acid], which Ki is on record?
The Ki was 10.8 nM.

With `COC(=O)c1ccc(Oc2ccc(Cl)c([C@H](C)[C@](O)(c3ccc4c(c3)N(C)C(=O)CO4)C(F)(F)F)c2)cc1Cl` (relative stereo) [Example 9, 2-Chloro-4-{4-chloro-3-[3,3,3-trifluoro-2-hydroxy-1-methyl-2-(4-methyl-3-oxo-3,4-dihydro-2H-benzo[1,4]oxazin-6-yl)-propyl]-phenoxy}-benzoic acid methyl ester] as the compound, how does the Ki read?
Its Ki is 8.9 nM.

For `C[C@@H](c1cc(Oc2ccc(C(=O)O)c(Cl)c2)ccc1Cl)[C@](O)(c1ccc2c(c1)N(C)C(=O)CO2)C(F)(F)F` (relative stereo) [Example 10, 2-Chloro-4-{4-chloro-3-[3,3,3-trifluoro-2-hydroxy-1-methyl-2-(4-methyl-3-oxo-3,4-dihydro-2H-benzo[1,4]oxazin-6-yl)-propyl]-phenoxy}-benzoic acid], which Ki is on record?
Its Ki is 3.7 nM.

With `C[C@@H](c1cc(Oc2ccc(F)c(C(=O)O)c2)ccc1Cl)[C@](O)(c1ccc2c(c1)N(C)C(=O)CO2)C(F)(F)F` (relative stereo) [Example 11, 5-{4-Chloro-3-[3,3,3-trifluoro-2-hydroxy-1-methyl-2-(4-methyl-3-oxo-3,4-dihydro-2H-benzo[1,4]oxazin-6-yl)-propyl]-phenoxy}-2-fluoro-benzoic acid] as the compound, how does the Ki read?
The Ki was 2.4 nM.

Which Ki does the source give for `C[C@@H](c1cc(Oc2cccc(CC(=O)O)c2)ccc1Cl)[C@](O)(c1ccc2c(c1)N(C)C(=O)CO2)C(F)(F)F` (relative stereo) [Example 12, (3-{4-Chloro-3-[3,3,3-trifluoro-2-hydroxy-1-methyl-2-(4-methyl-3-oxo-3,4-dihydro-2H-benzo[1,4]oxazin-6-yl)-propyl]-phenoxy}-phenyl)-acetic acid] here?
The Ki was 8 nM.
